Key:
[1] = system: human iPS cells (1231A3 strain); assay: Immunostaining of aggregate sections for retinal tissue markers Chx10, Rx; format: cell-based
Protocol: Here, as step 3, culturing was performed under the following condition 1 and condition 2: Under condition 1(+BMP), on day 6 after the start of suspension culturing, the medium was changed to a medium free of Y27632 and containing human recombinant BMP4 (manufactured by R&D) such that the final concentration of exogenous human recombinant BMP4 was 1.5 nM (55 ng/ml) (FIG. 6B, D). Under condition 2(−BMP), on day 6 after the start of suspension culturing, a half amount of the medium was changed to a medium free of Y27632 and free of a BMP signal transduction pathway activating substance, without adding exogenous human recombinant BMP4 (FIG. 6A, C).
The thus-prepared cell aggregates on day 23 after the start of suspension culturing, which were produced from the above iPS cells that underwent a preconditioning treatment in step 1 as a starting material were fixed with 4% para-formaldehyde to prepare frozen sections. These frozen sections were immunostained for Chx10 (anti-Chx10 antibody, Exalpha, sheep), which is one of the retinal tissue markers, or Rx (anti-Rx antibody, Takara, guinea pig), which is one of the retinal tissue markers. These immunostained sections were observed under an inverted fluorescence microscope.
Cell aggregate were prepared according to the method described in Example 8 under conditions in which human iPS cells using StemFit medium as a feeder-free medium were used as a starting material, TGFβR inhibiting substance (SB431542) or BMPR inhibiting substance (LDN193189) was used in step 1, Shh signal transduction pathway activating substance was used in step 2, and BMP signal transduction pathway activating substance was added or not added in step 3. Neural tissues were formed in all the aggregates formed under all these conditions on day 23 after the start of suspension culturing. The above cell aggregates were fixed with 4% para-formaldehyde to prepare frozen sections. These frozen sections were immunostained for Chx10 (anti-Chx10 antibody, Exalpha, sheep), which is one of the retinal tissue markers, or Rx (anti-Rx antibody, Takara, guinea pig), which is one of the retinal tissue markers. These immunostained sections were observed under an fluorescence microscope. […] Furthermore, it was found from the analysis of serial sections that, in a neural tissue having a high (not less than 95%) proportion of Chx10-positive cells, Rx is also strongly positive (FIG. 9B, D, F, H).
Cell aggregates were prepared according to the method described in Example 10 by using, as a starting material, human iPS cells using Essential 8 medium as a feeder-free culturing, under conditions that TGFβR inhibiting substance (SB431542) are used in step 1, a Shh signal transduction pathway activating substance are used in step 2, and a BMP signal transduction pathway activating substance are added or are not added in step 3. The cell aggregates on day 18 after the start of suspension culturing were each fixed with 4% para-formaldehyde to prepare frozen section. These frozen sections were immunostained for Chx10 (anti-Chx10 antibody, Exalpha, sheep), which is one of the retinal tissue markers, or Rx (anti-Rx antibody, Takara, guinea pig), which is one of the retinal tissue markers, and observed under a fluorescence microscope. […] Furthermore, it was found from the analysis of serial sections that, in a neural tissue having a high (not less than 95%) proportion of Chx10-positive cells, Rx is also strongly positive. […]
A Cell aggregate was formed on day 18 after the start of suspension culturing under every conditions, and a neural tissue was formed (FIG. 14, upper panel). The above cell aggregates on day 18 after the start of suspension culturing were each fixed with 4% para-formaldehyde to prepare frozen section. […]

[2] = system: human iPS cells (1231A3 strain); assay: Immunostaining for pluripotent stem cell marker Oct3/4 after preconditioning; format: cell-based; conditions: 1 day; SB431542 5 μM, LDN193189 100 nM, SAG 300 nM, or SB431542 5 μM and LDN193189 100 nM; positive = intensity not less than 2 times background
Protocol: Human iPS cells (1231A3 strain) were subjected to feeder-free culturing according to the method described in Example 1 in StemFit medium until one day before subconfluence. The human iPS cells one day before subconfluence were subjected to feeder-free culturing in the presence of SB431542 (TGFβR inhibitor, 5 μM), LDN193189 (BMPR inhibitor, 100 nM), SAG (Shh activating substance, 300 nM), or TGFβR inhibitor and BMPR inhibitor (SB431542 5 μM, and LDN193189 100 nM) (step 1: preconditioning treatment), or in the absence thereof (step 1: without preconditioning) for 1 day. The obtained cells were each fixed with 4% para-formaldehyde, and immunostaining for Oct3/4, which is one of the pluripotent stem cell markers, was performed and the immunostained cells were subjected to bright field observation and fluorescence image observation under an inverted fluorescence microscope (BIOREVO, KEYENCE).

[3] = Essential 8 medium, SB431542 in step 1, SAG in step 2, addition of BMP4 in step 3, day 18
[4] = Essential 8 medium, SB431542 in step 1, SAG in step 2, no addition of BMP4 in step 3, day 18
[5] = SB431542 or LDN193189 in step 1, SAG 300 nM in step 2, BMP4 1.5 nM in step 3, StemFit, day 23
[6] = LDN193189 100 nM in step 1, no SAG in step 2, BMP4 1.5 nM on day 6 in step 3, day 23
[7] = LDN193189 100 nM in step 1, no SAG in step 2, without BMP4 in step 3, day 23

SMILES | proportion of Chx10-positive cells in the total cells ([1]; A83-01 0.5 μM and SAG 300 nM in step 1, substance added in step 2 (SAG 30 nM, Purmorphamine 0.2 μM or human recombinant Shh 300 ng/ml), BMP4 1.5 nM on day 3, day 20) | Oct3/4 immunostaining of preconditioned cells [2] | proportion of Chx10-positive cells in the total cells [1, 3] | proportion of Rx-strong positive cells in the total cells [1, 3] | Rx-strong positive (corresponding to retina) [1, 4] | Rx-weak positive (corresponding to neural tissue other than retina) [1, 4] | proportion of Chx10-positive cells [1, 4] | proportion of Rx-positive cells in the total cells [1, 4] | proportion of Chx10-positive cells in the total cells [1, 5] | proportion of Rx-positive cells in the total cells [1, 5] | proportion of Chx10-positive cells in the total cells [1, 6] | proportion of Rx-positive cells in the total cells [1, 6] | Rx-strong positive (corresponding to retina) [1, 7] | Rx-weak positive (corresponding to neural tissue other than retina) [1, 7] | proportion of Chx10-positive cells [1, 7] | proportion of Rx-positive cells in the total cells [1, 7]
CNC1CCC(N(Cc2cccc(-c3ccncc3)c2)C(=O)c2sc3ccccc3c2Cl)CC1 (centres unmarked) [SAG] | about 90% | Oct3/4-positive | – | – | – | – | – | – | – | – | – | – | – | – | – | –
NC(=O)c1ccc(-c2nc(-c3ccc4c(c3)OCO4)c(-c3ccccn3)[nH]2)cc1 [SB431542, 4-(5-benzol[1,3]dioxol-5-yl-4-pyridin-2-yl-1H-imidazol-2-yl)-benzamide] | – | Oct3/4-positive | ≥ 20% | ≥ 30% | less than 3% | less than 7% | less than 3% | less than 10% | ≥ 70% | ≥ 80% | – | – | – | – | – | –
c1ccc2c(-c3cnn4cc(-c5ccc(N6CCNCC6)cc5)cnc34)ccnc2c1 [LDN193189, 4-[6-(4-piperazin-1-ylphenyl)pyrazolo[1,5-a]pyrimidin-3-yl]quinoline] | – | Oct3/4-positive | – | – | – | – | – | – | ≥ 40% | ≥ 50% | about 60% | about 60% | less than 3% | less than 7% | less than 3% | less than 10%

Source: patent US12492373B2, “Production method for nerve tissue” (Racthera Co., Ltd., priority 2014, dated 2025)
